The target of one assay is T1, IR (Homo sapiens, UniProt P06213).
T1 construct: purchased Millipore 14-803
The assay is described as follows: In vitro IR enzymatic assay (ADP-Glo kinase assay). The class given is biochemical. As to conditions: activated IR; read-out: IC50. The method, then:
(§1) IC50 values of the compounds of the invention against IGF-1R and IR were measured in vitro using an ADP-Glo kinase assay Kit (Promega). […] Kinase reactions in both assays were conducted at 30° C. for 20 min with increasing concentrations of compounds of the invention.

Another assay addresses FAK2(PTK2b) (Homo sapiens, UniProt Q14289). The assay is described as follows: Caliper kinase assay: FAK2(PTK2b). As to conditions: 0.01 μM.
Another assay has as its target NTRK2 (TRKB) (Homo sapiens, UniProt Q16620). As to the kind of experiment: Caliper kinase profiling: NTRK2 (TRKB). The note with it: 0.01 μM.
The target in the next assay is T2, AXL (Homo sapiens, UniProt P30530).
T2 sequence (P30530 26-894): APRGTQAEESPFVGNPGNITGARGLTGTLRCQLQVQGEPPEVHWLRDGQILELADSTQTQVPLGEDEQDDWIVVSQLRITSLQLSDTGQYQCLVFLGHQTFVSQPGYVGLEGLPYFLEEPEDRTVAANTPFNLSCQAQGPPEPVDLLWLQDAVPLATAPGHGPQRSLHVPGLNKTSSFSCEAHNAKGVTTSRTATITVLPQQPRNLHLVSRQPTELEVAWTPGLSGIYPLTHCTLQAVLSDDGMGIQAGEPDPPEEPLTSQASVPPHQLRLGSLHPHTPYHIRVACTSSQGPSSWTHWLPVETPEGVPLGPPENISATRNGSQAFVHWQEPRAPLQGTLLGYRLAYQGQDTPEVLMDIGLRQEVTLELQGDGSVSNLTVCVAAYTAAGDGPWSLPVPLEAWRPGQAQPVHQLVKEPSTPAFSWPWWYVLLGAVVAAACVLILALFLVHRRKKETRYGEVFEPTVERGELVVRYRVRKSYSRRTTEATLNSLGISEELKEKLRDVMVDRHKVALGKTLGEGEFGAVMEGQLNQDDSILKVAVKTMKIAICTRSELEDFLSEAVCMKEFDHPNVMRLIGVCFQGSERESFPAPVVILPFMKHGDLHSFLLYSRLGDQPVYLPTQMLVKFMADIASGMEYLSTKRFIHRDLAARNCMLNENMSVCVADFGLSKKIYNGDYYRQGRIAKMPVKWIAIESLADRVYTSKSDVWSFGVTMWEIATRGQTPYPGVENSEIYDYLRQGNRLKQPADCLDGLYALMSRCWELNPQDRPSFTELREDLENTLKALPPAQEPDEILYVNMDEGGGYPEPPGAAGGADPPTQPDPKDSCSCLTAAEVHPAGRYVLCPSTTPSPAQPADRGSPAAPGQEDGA
As to the kind of experiment: Caliper kinase profiling: AXL. As to conditions: 0.01 μM.

Assay [1] addresses T3, IGF1R (Homo sapiens, UniProt P08069). The assay is described as follows: In vitro IGF-1R enzymatic assay (ADP-Glo kinase assay). Details: purchased Millipore 14-802. The format is biochemical. As to conditions: activated IGF-1R; read-out: IC50. The method, then:
as §1

The target of the next assay is TRKC (NTRK3) (Homo sapiens, UniProt Q16288). As to the kind of experiment: Caliper kinase profiling: TRKC (NTRK3). As to conditions: 0.01 μM.
Another assay deals with MCF-7. As to the kind of experiment: Cell Titer-Glo cell viability: MCF-7. The class given is cell-based. The note with it: Homo sapiens; MCF7, breast cancer; 72 h incubation, Cell Titer-Glo. The procedure:
(§2) Compound nos. […] This panel of cell lines includes an ER− breast carcinoma, primary breast ductal carcinoma, prostate adenocarcinoma, mammary adenocarcinoma, mammary ductal carcinoma, mammary ductal carcinoma, ovary adenocarcinoma, ER+ breast carcinoma, ER-HER2+ mammary ductal carcinoma and an ER+ mammary ductal carcinoma, respectively.
(§3) This assay quantitates the ATP present in order to determine the number of viable cells in culture. Briefly, the compounds were incubated with the cells for 72 h, followed by cell lysis. The resulting luminescent signal is proportional to the amount of ATP present and, therefore, directly proportional to the number of cells present in culture.
(§4) Compounds 2b, 5, 6b and 10a were tested along with derivatives in viability assays as described above by Caliper LifeSciences Systems (Hanover, Md.), in A549, HCT-15, HCT-116, MCF-7, MDA-MB-231, OVCAR3, T47D, COLO205, HT-29, BT-20, HCC1187, HL-60, MDA-MB-175, SW-620, and UACC812 cells.

The subject of another assay is LNCaP. As to the kind of experiment: Cell Titer-Glo cell viability: LNCaP. The format is cell-based. As to conditions: Homo sapiens, Prostate cancer, 72 h incubation, Cell Titer-Glo. The method, then:
as §2, §3

In a further assay the test system is SW-620. As to the kind of experiment: Cell Titer-Glo cell viability: SW-620. The format is cell-based. The note with it: Homo sapiens, SW-620, 72 h, SW-620, metastatic colorectal cancer. The procedure:
as §3
(§5) Compound nos. […] These cell lines are derived from human lung carcinoma, colon adenocarcinoma, colon adenocarcinoma, colon carcinoma, acute promyelocytic leukemia, colon adenocarcinoma, colon adenocarcinoma (from metastatic site lymph node), respectively.
as §4

The test system of the next assay is HL-60. As to the kind of experiment: Cell Titer-Glo cell viability: HL-60. The format is cell-based, human. As to conditions: Homo sapiens, HL-60, 72 h. The procedure:
as §3, §5, §4

Assay [2] has as its system Akt phosphorylation induced by IGF-1R in HT-29 cells. As to the kind of experiment: Western blot analysis of Akt phosphorylation induced by IGF-1R. The note with it: then IGF-1 10 ng/mL 10 min, HT-29. The format is cell-based, Human. The method, then:
Inhibition of Akt phosphorylation induced by IGF-1R was studied by western blot analysis. Human colon carcinoma HT-29 cells were seeded at a density of 8×10^4 cells/well in a 24-well plate and grown in DME/F12 media containing 10% FBS for 24 h. The cells were then depleted of serum by incubation in DME/F12 media lacking FBS for 24 h. […] […] Lysed cells were centrifuged at 13,000 rpm for 15 min and the protein concentration soluble fraction (supernatant) of each sample was determined using a BCA protein assay (Pierce).

The next assay deals with HCC 1187. As to the kind of experiment: Cell Titer-Glo cell viability: HCC 1187. The note with it: Homo sapiens, HCC1187; HCC-1187, breast cancer; 72 h incubation, Cell Titer-Glo. The format is cell-based. The procedure:
as §2, §3, §4

The subject of the next assay is HCT-15. The assay is described as follows: Cell Titer-Glo cell viability: HCT-15. The class given is cell-based. The note with it: Homo sapiens, HCT-15, 72 h, HCT15, colon carcinoma. The procedure: as §3, §5, §4
The subject of a further assay is UACC 812. The assay is described as follows: Cell Titer-Glo cell viability: UACC 812. The class given is cell-based. As to conditions: Homo sapiens; UACC 812, breast cancer; 72 h incubation, Cell Titer-Glo. The procedure:
as §2, §3, §4
(§6) The inhibitory effects of Compound 8a were tested in two cell lines.

The test system of another assay is COLO 205. As to the kind of experiment: Cell Titer-Glo cell viability: COLO 205. The class given is cell-based. The note with it: Homo sapiens, COLO 205, 72 h. The procedure: as §3, §5, §4
The test system of a further assay is OVCAR-3. As to the kind of experiment: Cell Titer-Glo cell viability: OVCAR-3. The format is cell-based. The note with it: Homo sapiens, OVCAR3, ovarian cancer, 72 h incubation, Cell Titer-Glo. The method, then:
as §2, §3, §4

Another assay deals with HCT-116. The assay is described as follows: Cell Titer-Glo cell viability: HCT-116. The note with it: Homo sapiens, HCT116, colon carcinoma. The format is cell-based. The method, then: as §3, §5, §4
Another assay deals with A549. As to the kind of experiment: Cell Titer-Glo cell viability: A549. The format is cell-based. As to conditions: Homo sapiens, A549, 72 h, A549, non-small lung carcinoma. The procedure:
as §3, §5, §4

The test system of the next assay is HT-29. The assay is described as follows: Cell Titer-Glo cell viability: HT-29. The class given is cell-based. As to conditions: Homo sapiens, HT-29, 72 h. The method, then:
as §3, §5, §4

Another assay deals with MDA MB 231. As to the kind of experiment: Cell Titer-Glo cell viability: MDA MB 231. The format is cell-based. As to conditions: Homo sapiens, MDAMB231, breast cancer, 72 h incubation, Cell Titer-Glo. The procedure:
as §2, §3, §4

The subject of the next assay is BT-20. The assay is described as follows: Cell Titer-Glo cell viability: BT-20. As to conditions: Homo sapiens; BT-20, breast cancer; 72 h incubation, Cell Titer-Glo. The class given is cell-based. The procedure:
as §2, §3, §4

A further assay concerns MDA MB 175. As to the kind of experiment: Cell Titer-Glo cell viability: MDA MB 175. The class given is cell-based. As to conditions: MDA-MB-175, breast cancer; 72 h incubation, Cell Titer-Glo. The method, then: as §2, §3, §4, §6
Another assay has as its system T47D. The assay is described as follows: Cell Titer-Glo cell viability: T47D. The class given is cell-based. The note with it: Homo sapiens, breast cancer, 72 h incubation, Cell Titer-Glo. The method, then:
as §2, §3, §4

Another assay addresses KDR (Homo sapiens, UniProt P35968). As to the kind of experiment: Caliper kinase profiling: KDR. The note with it: read-out: Average % Inh @ 1 μM. The class given is biochemical.
Assay [3] has as its target T3, IGF1R. The assay is described as follows: Caliper kinase profiling: IGF1R. The class given is biochemical. More on the design: purchased Caliper LifeSciences (ProfilerPro Kinase Selectivity Assay Kits). As to conditions: 1 μM, read-out: Average % Inh @ 1 μM.
Protocol: (§7) The compound was tested at concentrations of 1.0×10^−8 and 1.0×10^−9 M in the RapidKinase192™ panel in duplicate. […] The screening was performed using the Caliper EZReader2, a 4-sipper LabChip, and ProfilerPro Kinase Selectivity Assay Kits 1 and 2. The assay measures the conversion of a fluorescent peptide substrate to a phosphorylated product. Briefly, the reaction mixture was introduced through a capillary sipper onto the microfluidic chip, where the substrate and product were electrophoretically separated and detected by laser-induced fluorescence. The time-dependent fluorescence signal indicates the extent of the reaction.
[4] abbreviates: 72 h incubation, Cell Titer-Glo.

Chain of NTRK2 (TRKB) (Q16620 32-822): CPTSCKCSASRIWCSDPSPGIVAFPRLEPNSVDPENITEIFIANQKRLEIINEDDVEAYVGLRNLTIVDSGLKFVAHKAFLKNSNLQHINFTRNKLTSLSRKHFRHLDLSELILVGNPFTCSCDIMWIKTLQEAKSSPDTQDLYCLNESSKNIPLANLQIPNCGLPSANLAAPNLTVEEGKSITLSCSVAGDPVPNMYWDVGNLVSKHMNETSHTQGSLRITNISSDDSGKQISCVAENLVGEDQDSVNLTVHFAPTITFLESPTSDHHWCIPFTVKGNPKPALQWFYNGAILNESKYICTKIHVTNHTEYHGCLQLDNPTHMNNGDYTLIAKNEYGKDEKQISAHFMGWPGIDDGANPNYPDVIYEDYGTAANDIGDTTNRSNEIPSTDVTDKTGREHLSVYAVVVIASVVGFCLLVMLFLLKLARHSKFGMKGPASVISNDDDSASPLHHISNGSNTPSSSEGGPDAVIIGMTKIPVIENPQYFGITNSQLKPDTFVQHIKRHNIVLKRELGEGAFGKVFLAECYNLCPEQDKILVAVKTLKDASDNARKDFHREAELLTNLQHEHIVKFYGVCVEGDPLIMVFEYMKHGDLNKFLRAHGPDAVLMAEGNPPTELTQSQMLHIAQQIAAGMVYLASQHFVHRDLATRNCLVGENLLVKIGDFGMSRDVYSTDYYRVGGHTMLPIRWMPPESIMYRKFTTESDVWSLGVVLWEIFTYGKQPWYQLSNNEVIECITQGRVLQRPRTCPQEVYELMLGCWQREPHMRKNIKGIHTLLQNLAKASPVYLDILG
Chain of TRKC (NTRK3) (Q16288 32-839): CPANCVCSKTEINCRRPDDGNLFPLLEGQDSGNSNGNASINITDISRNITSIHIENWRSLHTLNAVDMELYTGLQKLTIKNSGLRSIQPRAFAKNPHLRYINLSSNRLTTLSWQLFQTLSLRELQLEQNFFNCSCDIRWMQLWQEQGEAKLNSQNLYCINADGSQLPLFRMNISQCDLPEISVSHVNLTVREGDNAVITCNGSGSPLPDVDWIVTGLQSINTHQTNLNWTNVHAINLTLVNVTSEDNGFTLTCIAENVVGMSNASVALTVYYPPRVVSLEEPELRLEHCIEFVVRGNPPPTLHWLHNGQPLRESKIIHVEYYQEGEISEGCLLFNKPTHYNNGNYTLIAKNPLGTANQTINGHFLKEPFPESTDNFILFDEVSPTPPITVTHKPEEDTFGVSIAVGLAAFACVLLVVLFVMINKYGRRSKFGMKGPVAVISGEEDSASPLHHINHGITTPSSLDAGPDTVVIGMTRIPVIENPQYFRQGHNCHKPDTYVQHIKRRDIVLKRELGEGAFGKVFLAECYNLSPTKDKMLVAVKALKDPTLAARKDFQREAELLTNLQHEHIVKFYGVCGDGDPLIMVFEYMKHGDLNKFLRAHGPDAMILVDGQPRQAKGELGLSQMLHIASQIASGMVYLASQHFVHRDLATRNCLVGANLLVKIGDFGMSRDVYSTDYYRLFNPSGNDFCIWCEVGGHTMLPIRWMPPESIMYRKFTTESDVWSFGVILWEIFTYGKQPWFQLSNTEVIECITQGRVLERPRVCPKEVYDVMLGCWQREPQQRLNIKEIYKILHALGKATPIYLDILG
T3 sequence (P08069 31-1367): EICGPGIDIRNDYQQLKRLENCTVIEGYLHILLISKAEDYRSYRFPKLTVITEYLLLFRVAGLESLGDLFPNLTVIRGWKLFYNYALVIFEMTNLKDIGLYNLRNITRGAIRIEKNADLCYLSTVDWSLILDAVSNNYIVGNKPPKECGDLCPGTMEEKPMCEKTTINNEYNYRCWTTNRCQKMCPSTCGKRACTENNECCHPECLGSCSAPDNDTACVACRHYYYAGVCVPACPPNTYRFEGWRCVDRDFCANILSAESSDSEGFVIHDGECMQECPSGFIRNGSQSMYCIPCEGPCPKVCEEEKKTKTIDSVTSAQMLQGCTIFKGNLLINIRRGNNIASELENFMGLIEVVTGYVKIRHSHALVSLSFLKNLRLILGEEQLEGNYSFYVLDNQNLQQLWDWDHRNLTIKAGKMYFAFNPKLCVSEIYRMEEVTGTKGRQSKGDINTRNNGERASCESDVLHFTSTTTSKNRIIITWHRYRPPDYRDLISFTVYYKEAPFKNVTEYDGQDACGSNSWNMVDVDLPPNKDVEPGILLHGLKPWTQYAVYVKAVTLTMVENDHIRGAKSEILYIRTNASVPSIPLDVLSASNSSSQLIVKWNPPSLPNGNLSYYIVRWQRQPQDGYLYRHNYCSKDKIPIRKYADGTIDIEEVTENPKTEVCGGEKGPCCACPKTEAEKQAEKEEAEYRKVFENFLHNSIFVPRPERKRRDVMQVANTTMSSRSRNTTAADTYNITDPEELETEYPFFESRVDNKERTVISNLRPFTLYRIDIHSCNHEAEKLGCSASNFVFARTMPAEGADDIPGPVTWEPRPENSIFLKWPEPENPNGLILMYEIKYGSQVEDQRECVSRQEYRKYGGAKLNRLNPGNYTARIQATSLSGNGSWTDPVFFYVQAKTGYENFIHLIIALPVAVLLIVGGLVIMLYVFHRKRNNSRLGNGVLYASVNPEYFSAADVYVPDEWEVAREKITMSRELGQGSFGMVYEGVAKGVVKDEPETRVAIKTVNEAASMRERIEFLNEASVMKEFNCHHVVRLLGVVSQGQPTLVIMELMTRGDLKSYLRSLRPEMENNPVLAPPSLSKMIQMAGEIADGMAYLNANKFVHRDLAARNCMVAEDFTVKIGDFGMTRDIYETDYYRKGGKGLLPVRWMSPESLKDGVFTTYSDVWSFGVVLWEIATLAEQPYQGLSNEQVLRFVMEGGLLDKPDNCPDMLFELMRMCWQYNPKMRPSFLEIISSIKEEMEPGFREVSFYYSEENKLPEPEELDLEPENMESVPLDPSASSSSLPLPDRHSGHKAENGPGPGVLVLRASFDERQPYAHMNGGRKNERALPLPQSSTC
Chain of FAK2(PTK2b) (Q14289 whole entry): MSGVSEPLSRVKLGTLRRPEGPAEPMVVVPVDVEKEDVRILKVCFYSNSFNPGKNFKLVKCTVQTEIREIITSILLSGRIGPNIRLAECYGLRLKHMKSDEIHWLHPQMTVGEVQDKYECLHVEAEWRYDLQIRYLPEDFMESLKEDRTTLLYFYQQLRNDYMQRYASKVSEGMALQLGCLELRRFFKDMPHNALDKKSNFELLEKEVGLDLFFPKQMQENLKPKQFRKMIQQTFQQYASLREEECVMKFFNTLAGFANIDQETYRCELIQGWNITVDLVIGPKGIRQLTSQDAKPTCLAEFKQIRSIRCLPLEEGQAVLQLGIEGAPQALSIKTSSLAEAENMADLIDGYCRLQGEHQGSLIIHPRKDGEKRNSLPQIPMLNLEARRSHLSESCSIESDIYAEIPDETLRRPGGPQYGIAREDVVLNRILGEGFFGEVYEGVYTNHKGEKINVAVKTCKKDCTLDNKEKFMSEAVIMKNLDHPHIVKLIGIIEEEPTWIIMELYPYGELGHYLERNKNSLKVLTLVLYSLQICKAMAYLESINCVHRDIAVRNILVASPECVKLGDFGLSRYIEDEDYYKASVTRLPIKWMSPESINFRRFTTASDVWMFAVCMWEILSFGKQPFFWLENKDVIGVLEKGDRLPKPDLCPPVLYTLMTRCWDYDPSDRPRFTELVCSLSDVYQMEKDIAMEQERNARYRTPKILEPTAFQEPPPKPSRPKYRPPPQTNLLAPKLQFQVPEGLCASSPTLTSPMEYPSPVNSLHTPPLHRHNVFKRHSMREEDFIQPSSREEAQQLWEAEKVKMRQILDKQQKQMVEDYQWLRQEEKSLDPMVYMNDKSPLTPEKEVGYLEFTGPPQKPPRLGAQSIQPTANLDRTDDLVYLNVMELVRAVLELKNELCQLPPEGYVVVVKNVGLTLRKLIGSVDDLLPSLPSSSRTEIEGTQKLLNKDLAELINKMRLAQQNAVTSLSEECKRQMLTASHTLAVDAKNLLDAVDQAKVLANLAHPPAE
Protocol for AXL: as §7
(§8) The kinases tested were AurA, AurB, AurC, AXL, FAK2, IGF1R, InsR, Mer, MET, TrkB and TrkC.
(§9) The assays were conducted using the Caliper LabChip 3000 and a 12-sipper LabChip as described above.
Protocol for FAK2(PTK2b): as §7, §8, §9
Protocol for KDR: as §7
Protocol for NTRK2 (TRKB): as §7, §8, §9
Protocol for TRKC (NTRK3): as §7, §8, §9

As for `O=C(Nc1ccc(F)nc1)C1CC(O)CN1c1nc2c(c(Nc3cc(C4CC4)[nH]n3)n1)CCC2` (single isomer, unassigned) [Compound 10d, 1-(4-(5-cyclopropyl-1H-pyrazol-3-ylamino)-6,7-dihydro-5H-cyclopenta[d]pyrimidin-2-yl)-N-(6-fluoropyridin-3-yl)-4-hydroxypyrrolidine-2-carboxamide], the results for the IC50 at IR and on IGF1R [1] were 0.0072 µM and 0.0058 µM, respectively. On FAK2(PTK2b), the “inhibition of FAK2 in panel of 11 kinases” value is reported as “strongly inhibited”. Moreover, the “inhibition of TrkB in panel of 11 kinases” value against NTRK2 (TRKB) was “strongly inhibited”. Besides, the “inhibition of AXL in panel of 11 kinases” value at AXL is “strongly inhibited”. In addition, the “inhibition of TrkC in panel of 11 kinases” value against TRKC (NTRK3) is recorded as “strongly inhibited”.
On to `O=C(Nc1ccc(F)nc1)C1CC(O)CN1c1nc2c(c(Nc3cc(C4CC4)[nH]n3)n1)CCC2` (single isomer, unassigned) [Compound 10a], for which the IC50 was < 1 µM with MCF-7; < 1 µM in the assay with LNCaP; < 10 µM with SW-620 (setting [4]); 0.1 µM with HL-60 (HL60, promyelocytic leukemia, 72 h incubation, Cell Titer-Glo); < 1 µM in the assay with HCC 1187; < 100 µM with HCT-15 (setting [4]). Moreover, the IC50 in the assay on UACC 812 is < 10 µM; with COLO 205 (COLO205, colon cancer, 72 h incubation, Cell Titer-Glo), < 0.1 µM; with OVCAR-3, 1 µM; in the assay with HCT-116 (setting [4]), 10 µM; in the assay with A549 (setting [4]), < 10 µM; in the assay on HT-29 (HT-29, colon adenocarcinoma, 72 h incubation, Cell Titer-Glo), < 0.1 µM. Besides, the IC50 is 10 µM with MDA MB 231, < 10 µM in the assay on BT-20, < 10 µM in the assay on MDA MB 175 and 1 µM in the assay on T47D. In addition, the entries for the “phosphorylated AKT levels normalized to actin levels (pAKT/actin)” value in [2] (1 nM compound 2 h), in assay [2] (10 nM compound 2 h) and in assay [2] (100 nM compound 2 h) were 0.54, 0.00 and 0.01, respectively. Besides, at FAK2(PTK2b), the “inhibition of FAK2 in panel of 11 kinases” value is “strongly inhibited”. In addition, the “inhibition of TrkB in panel of 11 kinases” value against NTRK2 (TRKB) is recorded as “strongly inhibited”. For the same compound, at AXL, the “inhibition of AXL in panel of 11 kinases” value was “strongly inhibited”. Moreover, on TRKC (NTRK3), the “inhibition of TrkC in panel of 11 kinases” value is “strongly inhibited”.
`CC1(O)CC(c2nc(-c3ccc4ccc(-c5ccccc5)nc4c3)c3c(N)nccn23)C1` (stereo not drawn) [OSI-906, 3-[8-Amino-1-(2-phenyl-7-quinolyl)imidazo[1,5-a]pyrazin-3-yl]-1-methyl-cyclobutanol, reference compound]: the IC50 with SW-620 (72 h) was < 100 µM; in the assay on HL-60 (HL60, promyelocytic leukemia (second entry of the table), 72 h), < 10 µM; in the assay with HL-60 (HL-60, promyelocytic leukemia, 72 h), < 100 µM; with HCT-15 (72 h) it was < 100 µM; with COLO 205 (COLO-205, colon adenocarcinoma, 72 h), 1 µM; in the assay with HCT-116 (72 h), < 100 µM. In addition, the IC50 in the assay on A549 (72 h) is 10 µM; with HT-29 (HT29, colon adenocarcinoma (second entry of the table), 72 h), < 10 µM; in the assay on HT-29 (HT-29, colon cancer, 72 h), < 100 µM. The “phosphorylated AKT levels normalized to actin levels (pAKT/actin)” value in [2] (1 nM compound 2 h) is given as 0.85; in assay [2] (100 nM compound 2 h), 0.40. Also, the inhibition at 1 µM on KDR is 40 to 59%; on IGF1R [3], > 60%.

These data come from US9422267B2, “Fused pyrimidine compounds and use thereof” (Medivation Technologies, Inc., priority 2012, dated 2016).
